Reference: US20260258085A1, “NOVEL DECAPEPTIDE AND USE THEREOF IN ANTIBACTERIAL” (METHYCURE BIOTECH CORP., priority 2023, published 2026)
Positions of bridges follow the written chain, without caps; N, C: chain ends. Non-standard residues stand in square brackets, D forms with d. Residues, ends and D or L forms follow the SMILES beside them. *: point of attachment. X1 = CC[C@H](C)CCCCC(=O)*; dDab = NCC[C@@H](N)C(=O)O; Dab = NCC[C@H](N)C(=O)O

Experiments:
[1] = system: E. coli containing the MCR-1 plasmid; type: cell-based, Escherichia coli; details: for Minimum Inhibitory Concentration, E. coli 1: strain 1, MCR-1 plasmid; for Minimum Inhibitory Concentration, E. coli 2: strain 2, MCR-1 plasmid
Protocol: (§1) The polymyxin-resistant pathogenic bacteria used for testing were all sourced from the hospital intensive care unit, isolated and cultured from clinical samples of patients with severe pneumonia. The strain species were identified by the hospital microbiology laboratory, and the presence of the mcr-1 gene in the strains was confirmed by high-throughput sequencing.
(§2) The culture procedure fully referenced Example 1.
(§3) Each bacterial species in the table was tested using 2 strains, denoted as “1” and “2” respectively.

[2] = system: K. pneumoniae containing the MCR-1 plasmid; type: cell-based, Klebsiella pneumoniae; details: for Minimum Inhibitory Concentration, K. pneumoniae 1: strain 1, MCR-1 plasmid; for Minimum Inhibitory Concentration, K. pneumoniae 2: strain 2, MCR-1 plasmid
Protocol: as §1, §2, §3

[3] = system: polymyxin-resistant Acinetobacter baumannii; test: Efficacy in neutropenic mice with thigh infection; type: in vivo; details: neutropenic CD1 mice, 20 mg/kg subcutaneous at 2, 8, 14, 24 hours post-infection, endpoint 24 hours
Text: All mice used in this part passed the ethical review of animal research at Nanjing University. To avoid the influence of the mouse's innate immune system on the intrinsic activity of the antimicrobial peptide, we constructed a neutropenic mouse model. This experiment used 6-week-old CD1 female mice (20-25 g). Mice were randomly housed in individually ventilated cages and maintained according to the standards of the Association for Assessment and Accreditation of Laboratory Animal Care International. The room was set to a 12-hour light cycle, temperature of 21° C., and humidity of 30%. […]
At 2, 8, 14, and 24 hours post-infection, mice were subcutaneously injected with 100 μL of vehicle (0.9% saline), Polymyxin E (Colistin) (20 mg/kg), or the antimicrobial peptide (20 mg/kg). […] All mice were closely monitored post-infection for signs of illness. Any abnormal clinical symptoms were recorded. […] Thigh muscles were processed aseptically, weighed, homogenized, and plated for CFU counts on MH agar containing 50 μg/mL gentamicin to quantify the bacterial burden. Efficacy was determined by the reduction in bacterial burden in the thighs compared to the […] control group. All graphical data were statistically analyzed using GraphPad Prism software (Prism v.9). Differences in burden between test and control groups were assessed using one-way analysis. […]

[4] = system: A. baumannii containing the MCR-1 plasmid; type: cell-based, Acinetobacter baumannii; details: for Minimum Inhibitory Concentration, A. baumannii 1: strain 1, MCR-1 plasmid; for Minimum Inhibitory Concentration, A. baumannii 2: strain 2, MCR-1 plasmid
Protocol: as §1, §2, §3

[5] = system: P. aeruginosa containing the MCR-1 plasmid; type: cell-based, Pseudomonas aeruginosa; details: for Minimum Inhibitory Concentration, P. aeruginosa 1: strain 1, MCR-1 plasmid; for Minimum Inhibitory Concentration, P. aeruginosa 2: strain 2, MCR-1 plasmid
Protocol: as §1, §2, §3

E. coli = test: Minimum inhibitory concentration test against common Gram-negative bacteria; type: cell-based, Escherichia coli; details: clinical isolate, 37° C., 16 hours, visual reading
Protocol: (§4) The pathogenic bacteria used for testing were all sourced from the intensive care unit of Gulou Hospital, isolated and cultured from clinical samples of patients with severe pneumonia. The strain species were identified by the Microbiology Laboratory of Gulou Hospital. The Gram-negative bacteria here include Escherichia coli, Pseudomonas aeruginosa, Acinetobacter baumannii, Klebsiella pneumoniae, etc.
(§5) A single colony of the test bacteria was inoculated into 5 ml of medium and cultured overnight to saturation. 10 μL of bacterial culture was aspirated and added to 990 μL of fresh medium, mixed well, to obtain a 100-fold diluted bacterial suspension. Then, 20 μL of the 100-fold diluted bacterial suspension was aspirated and added to 980 μL of fresh medium, mixed well. The bacteria obtained at this point were diluted 5000-fold.
(§6) The antimicrobial peptide was dissolved in Dimethyl sulfoxide (DMSO) to obtain a stock solution with a concentration of 12.8 mg/mL. Using DMSO, a two-fold serial dilution was performed for 10 consecutive times.
Add the 11 gradients of antimicrobial peptide diluted in step 1.1.2 to a 96-well plate, respectively, with the last well containing the same volume of DMSO. Then, add 48 μL of fresh medium to each well. Subsequently, add the 5000-fold diluted bacteria from step 1.1.1 to each well. Mix well. Incubate at 37° C. for 16 hours. […]

Pseudomonas aeruginosa = test: as above; type: cell-based; details: clinical isolate, 37° C., 16 hours, visual reading
Protocol: as §4, §5, §6
(§7) Add the 11 gradients of antimicrobial peptide diluted in step 1.1.2 to a 96-well plate, respectively, with the last well containing the same volume of DMSO. Then, add 48 μL of fresh medium to each well. Subsequently, add the 5000-fold diluted bacteria from step 1.1.1 to each well. Mix well. Incubate at 37° C. for 16 hours. Visually determine the concentration at which bacterial growth begins to be inhibited; this is the minimum inhibitory concentration (MIC).

Klebsiella pneumoniae = test: as above; type: cell-based; details: clinical isolate, 37° C., 16 hours, visual reading
Protocol: as §4, §5, §6, §7

Acinetobacter baumannii = test: as above; type: cell-based; details: clinical isolate, 37° C., 16 hours, visual reading
Protocol: as §4, §5, §6, §7

SMILES | Minimum Inhibitory Concentration, E. coli 1 [1] [µg/mL] | Minimum Inhibitory Concentration, E. coli 2 [1] [µg/mL] | Minimum Inhibitory Concentration, K. pneumoniae 1 [2] [µg/mL] | Minimum Inhibitory Concentration, K. pneumoniae 2 [2] [µg/mL] | bacterial burden in thighs (CFU) [3] | Minimum Inhibitory Concentration, A. baumannii 1 [4] [µg/mL] | Minimum Inhibitory Concentration, A. baumannii 2 [4] [µg/mL] | Minimum Inhibitory Concentration, P. aeruginosa 1 [5] [µg/mL] | Minimum Inhibitory Concentration, P. aeruginosa 2 [5] [µg/mL] | Minimum Inhibitory Concentration (MIC) (E. coli) [µg/mL] | Minimum Inhibitory Concentration (MIC) (Pseudomonas aeruginosa) [µg/mL] | Minimum Inhibitory Concentration (MIC) (Klebsiella pneumoniae) [µg/mL] | Minimum Inhibitory Concentration (MIC) (Acinetobacter baumannii) [µg/mL]
CC[C@H](C)CCCCC(=O)N[C@@H](CCN)C(=O)N[C@H](C(=O)N[C@@H](CCN)C(=O)N[C@H]1CCNC(=O)[C@H]([C@@H](C)O)NC(=O)[C@H](CCN)NC(=O)[C@H](CCN)NC(=O)[C@H](CC(C)C)NC(=O)[C@@H](CC(C)C)NC(=O)[C@H](CCN)NC1=O)[C@@H](C)O [Colistin, reference compound] (X1-[Dab]T[Dab][Dab][Dab][dL]L[Dab][Dab]T; lactam 4-C) | 128 | 256 | 64 | 128 | did not reduce the count of Acinetobacter baumannii | 128 | 128 | 64 | 128 | – | – | – | –
CC[C@H](C)CCCCC(=O)N[C@@H](CCN)C(=O)N[C@H](C(=O)N[C@H](CCN)C(=O)N[C@H]1CCNC(=O)[C@H](CC(C)C)NC(=O)[C@H](CCN)NC(=O)[C@H](CCN)NC(=O)[C@H]([C@@H](C)CC)NC(=O)[C@@H](CC(C)C)NC(=O)[C@H](CCN)NC1=O)[C@@H](C)O [Antimicrobial Peptide, {6-ME-Octanoic acid}-{Dab}-{Thr}-{D-Dab}-{Dab}-{Dab}-{D-Leu}-{Ile}-{Dab}-{Dab}-{Leu}] (X1-[Dab]T[dDab][Dab][Dab][dL]I[Dab][Dab]L; lactam 4-C) | 2 | 2 | 1 | 2 | significant reduction in colony-forming units (CFU) | 4 | 2 | 2 | 1 | 4 | 4 | 8 | 16
